Results: article PMC5759193, “The tankyrase inhibitor G007-LK inhibits small intestine LGR5^+ stem cell proliferation without altering tissue morphology” (Biological Research, 2018)
Several values for one entry are separate records, joined by “and”; a condition that tells them apart may be missing. Equal entries are not always repeated. Where two headings read alike, the source gives them in different places.

Columns and labels:
[1] = Pharmacokinetic analysis in plasma after G007-LK enriched chow; assay type: in vivo, ICR mice; conditions: for G007-LK Concentration in plasma, Mean: n=5; for Cmax: 0 h
Method: To address the pharmacokinetic properties of the tankyrase inhibitor G007-LK, ICR mice (n = 25) were treated for 3 days with a G007-LK-enriched diet, containing 100 mg G007-LK/kg chow. […] Pharmacokinetic parameters of G007-LK following administration of enriched diet for three consecutive days are listed in Table 1.

[2] = system: LGR5^+ intestinal stem cells; experiment: Lineage tracing from LGR5^+ intestinal stem cells in duodenum (confocal microscopy, GFP IHC)
Method: Pieces of duodenum from mice that had undergone induced lineage tracing were fixed for 30 min in 4% paraformaldehyde (PFA) at room temperature, rinsed in PBS and immediately prepared for confocal microscopic analyses. Under a stereo microscope one row of intestinal villi was sectioned from the duodenal wall with a scalpel, rinsed in dH2O and embedded in Mowiol 4-88 (Sigma-Aldrich). The samples were examined with a Zeiss LSM 780 confocal microscope (Carl Zeiss MicroImaging GmbH) equipped with a multiline argon laser (458/488/514 nm), a 10 mW DPSS laser (561 nm), a 405-30 CW laser diode (405 nm), and a helium–neon (HeNe) laser (633 nm). The objective used was a Zeiss Plan-Apochromat 20×/0.8 DIC II. To calculate the numbers and volumes of the traced cells, confocal Z-stacks were analysed with Imaris 7.7.2 (Bitplane AG). A similar threshold for the segmentation of the traced cells was used in all Z-stacks examined. Image visualisations were performed with the basic Zeiss LSM 780 ZEN 2010 software, Photoshop CS4 (Adobe), and Imaris 7.7.2.
(§1) Mouse tissue was fixed overnight in 4% PFA, routinely processed and paraffin embedded. The paraffin-embedded tissue was sectioned at 3–4.5 μm. IHC staining was performed as previously described, with primary antibodies against β-catenin, green fluorescent protein (GFP), Lysozyme and Chromogranin A (rabbit monoclonal anti-β-catenin, Abcam ab32572; rabbit monoclonal anti-GFP, Cell Signaling Technology #2956; rabbit monoclonal anti-Lysozyme, Abcam ab108508; rabbit polyclonal anti-Chromogranin A, Abcam ab15160). For quantitative analyses of the IHC-stained tissue sections, the slides were scanned using the Hamamatsu Digital Slide Scanner NanoZoomer 2.0-HT C9600-13 and the number of positive and negative cells in up to 10 crypts or villi from each animal was counted manually. Periodic acid-Schiff (PAS) and Alcian blue staining was performed at the Department of Pathology, Oslo University Hospital, using standard protocols.

canonical WNT signalling = experiment: β-catenin IHC of duodenal crypt base cells; assay type: in vivo, mice; conditions: gavage 10 mg/kg n = 2 and 50 mg/kg n = 1
Method: as §1
To verify that the administered doses of the tankyrase inhibitor had the expected effect on canonical WNT signalling, we stained duodenal tissue sections with a β-catenin-specific antibody. Nuclear localisation of β-catenin implied active canonical WNT signalling in vehicle (n = 3), (Fig. 4a) and G007-LK-treated (gavage 10 mg/kg, n = 2 and 50 mg/kg, n = 1) mice (Fig. 4b).

duodenal crypt cells = experiment: BrdU labelling of duodenal crypt cells; assay type: in vivo, mice; conditions: 100 mg/kg chow
Method: Slides with tissue sections were deparaffinised in xylene and re-hydrated through a graded series of ethanol. Heat-antigen retrieval was performed in 10 mM sodium-citrate buffer supplemented with 0.05% Tween 20 in a pressure cooker for 3 min and the slides were slowly cooled down. Slides were rinsed in washing buffer (PBS supplemented with 0.1% Tween), incubated with blocking buffer (PBS supplemented with 5% goat serum and 5% bovine serum albumin (BSA)) for 30 min at room temperature and rinsed in washing buffer. Primary antibodies (mouse monoclonal anti-BrdU, ThermoFisher #B35128; monoclonal anti-GFP, Cell Signalling #2956) diluted in blocking buffer were applied and incubated over night at 4 °C. […]
Mice were treated with BrdU (100 mg/kg body mass) 1 h before being sacrificed or with daily 1 mg BrdU injections for 7 days prior to sacrifice. […] BrdU-labelled cells were detected using a BrdU IHC kit (Abcam #125306) according to the manufacturer’s protocol, or using a monoclonal anti-BrdU antibody (ThermoFisher #B35128) and a Mouse-on-Mouse kit (Vector Laboratories #BMK-2202) according to the IHC protocol outlined above. The fraction of BrdU-labelled crypt cells was calculated.

duodenum = experiment: Duodenal morphology and cellular composition (H&E, PAS, Alcian blue, Lysozyme, Chromogranin A); assay type: in vivo, mice
Method: as §1
Similar data for the goblet cells were obtained by Alcian blue staining of acidic mucin (Additional file 5: Figure S4A–C).

[3] = cited from earlier work
[4] = Tolerance: body mass, food consumption, clinical observations
Method: Medicilon Preclinical Research (Shanghai) LCC performed the pharmacokinetic studies; in brief, ICR mice (n = 25) from Sion-British SIPPR/BK Lab Animal Ltd, Shanghai were fed 100 mg G007-LK/kg chow enriched diet ad libitum for 3 consecutive days, body mass and food consumption was measured daily.
The body mass of the G007-LK-treated mice and the amount of consumed chow was measured 5 days per week. […] The mice were treated with G007-LK for 9 days by oral gavage or 21 days with the enriched diet.
The tolerance of G007-LK treatment in the experimental mice used in this study was further evaluated by short-term oral gavage treatment daily for 9 days with 10 or 50 mg G007-LK/kg body mass (Fig. 1d). […] For long-term treatment, mice were fed G007-LK-enriched diets, 100 or 1000 mg G007-LK/kg chow for up to 3 weeks (Fig. 1f).

[5] = ICR mice, female, diet containing G007-LK 100 mg/kg chow 3 days, plasma
[6] = 6 months, 158 mg/kg chow, high fat-based diet
[7] = ICR mice, 100 mg G007-LK/kg chow, 3 days

CS(=O)(=O)c1ccc(-c2nnc(/C=C/c3nnc(-c4ccc(C#N)cc4)o3)n2-c2ccccc2Cl)nc1 [G007-LK]
G007-LK Concentration in plasma, single animals G1-1 to G1-5 ([1]; 0 h after diet removal): 773,96 ng/mL and 795,28 ng/mL and 756,04 ng/mL and 696,04 ng/mL and 791,2 ng/mL
G007-LK Concentration in plasma, Mean ([1]; 0 h after diet removal): 762,5 ng/mL
G007-LK Concentration in plasma, single animals G1-1 to G1-5 ([1]; 1 h after diet removal): 676,41 ng/mL and 696,8 ng/mL and 608,34 ng/mL and 669,24 ng/mL and 689,94 ng/mL
G007-LK Concentration in plasma, Mean ([1]; 1 h after diet removal): 668,15 ng/mL
G007-LK Concentration in plasma, single animals G1-1 to G1-5 ([1]; 2 h after diet removal): 639,46 ng/mL and 649,54 ng/mL and 610,19 ng/mL and 589,18 ng/mL and 567,65 ng/mL
G007-LK Concentration in plasma, Mean ([1]; 2 h after diet removal): 611,2 ng/mL
G007-LK Concentration in plasma, single animals G1-1 to G1-5 ([1]; 4 h after diet removal): 335,27 ng/mL and 378,3 ng/mL and 216,65 ng/mL and 474,86 ng/mL and 316,33 ng/mL
G007-LK Concentration in plasma, Mean ([1]; 4 h after diet removal): 344,28 ng/mL
G007-LK Concentration in plasma, single animals G1-1 to G1-5 ([1]; 12 h after diet removal): 52,75 ng/mL and 105,7 ng/mL and 112,65 ng/mL and 158,02 ng/mL and 111,12 ng/mL
G007-LK Concentration in plasma, Mean ([1]; 12 h after diet removal): 108,05 ng/mL
Cmax ([1]; ICR mice, diet containing G007-LK 100 mg/kg chow 3 days, plasma, read-out: Cmax): 1440 ± 80 nM
AUC(0-t) [1, 5]: 4119.80 ng·h/mL
AUC(0-∞) [1, 5]: 4770.32 ng·h/mL
Cmax [1, 5]: 762.50 ng/mL
t1/2 ([1]; ICR mice, female, diet containing G007-LK 100 mg/kg chow ad libitum 3 days, plasma, non-compartmental): 4.17 h
F^a bioavailability ([1]; enriched chow vs IV data of ref 26, calculated from AUC(0-t)): 22.22%
F^b bioavailability ([1]; enriched chow vs IV data of ref 26, calculated from AUC(0-∞)): 20.69%
lineage tracing after stop of treatment (G007-LK-stop, reversibility) ([2]; 100 mg/kg chow 2 weeks, G007-LK-free diet 2 days before tamoxifen, tracing 7 days): presence of lineage traced cells throughout the entire length of the villi
average ratio of crypts with GFP positive cells versus total counted crypts ([2]; GFP IHC, G007-LK treated mice n = 10 (control 0.51)): 0.39
reduction of ratio of crypts with GFP positive cells versus total counted crypts, compared with control ([2]; GFP IHC, n = 10 treated, p = 0.05): 23%
location of lineage traced cells when treatment starts after tamoxifen ([2]; Lgr5-EGFP-CreERT2;R26R-tdTomato mice, 100 mg/kg chow 6 days, started 24–36 h after tamoxifen): lineage traced cells were detected in the middle of the duodenal villi
number of villi with traced cells vs control ([2]; duodenum): significantly (t test, p < 0.05) reduced
number of lineage traced cells vs control ([2]; image analysis, duodenum): significant (t test, p < 0.05) reduction
volume of lineage traced cells vs control ([2]; image analysis, duodenum): significant (t test, p < 0.05) reduction
lineage tracing from LGR5^+ stem cells ([2]; long-term, 100 mg/kg chow, duodenum): markedly reduced lineage tracing
fraction of β-catenin-positive nuclei in crypt base cells vs control (canonical WNT signalling): significant (t test, p < 0.05) reduction
BrdU-labelled cells after daily BrdU for 7 days (duodenal crypt cells; n = 3): BrdU-labelled cells were observed at the tips of the villi
ratio of BrdU positive crypt cells (duodenal crypt cells; n = 7, BrdU 1 h (control 0.28), p < 0.05): 0.14
gross morphology of the duodenum (crypts and villi), H&E (duodenum; 9 days gavage 10 or 50 mg/kg, 21 days enriched diet 100 or 1000 mg/kg chow): maintained
crypt abscesses (duodenum; distal duodenum and ileum): occasional crypt abscesses were observed
morphology of epithelial cell layer (duodenum; distal duodenum and ileum): did not induce major morphological changes
distribution of Paneth cells in crypt base (Lysozyme IHC) vs control (duodenum; duodenum): equal distribution pattern
distribution of enteroendocrine cells (Chromogranin A IHC) vs control (duodenum; duodenum): comparable distribution patterns
number of PAS stained goblet cells vs vehicle (duodenum; duodenum, gavage 50 mg/kg): no significant difference
crypt:villus ratios, crypt duplication rates or size, goblet cell number or size, crypts per villus base (duodenum; proximal duodenum, gavage treated vs control): no statistically significant (t test, p > 0.05) changes
glucose metabolism [3, 6]: improved glucose tolerance and insulin sensitivity
toxic effects [3, 6]: did not lead to visible toxic effects
small intestine toxicity ([3]; intermediate and high doses, up to 100 mg/kg body mass once daily 14–20 days, i.p. or orally): partially reversible focal necrosis and inflammation in the small intestine
changes in body mass [4, 7]: minor, not statistically significant
food consumption [4, 7]: stable day 2 and 3 of the G007-LK enriched chow administration period, but statistically significant lower (t test, p < 0.05) the first day
macroscopic phenotypes [4, 7]: No obvious macroscopic abnormal phenotypes were observed
tolerability ([4]; daily doses up to approximately 200 mg/kg body mass, gavage or enriched diet): well tolerated
